# Source: PMC5780470, “Copper(I)-binding properties of de-coppering drugs for the treatment of Wilson disease. α-Lipoic acid as a potential anti-copper agent” (Scientific Reports, 2018)
# Biological target: MT2A (MT2, Cu10MT, Cu10MT2) (Oryctolagus cuniculus, UniProt P18055)
# Assay: ESI-MS demetallation of Cu10MT, Hill fit
# Type: binding
# Settings: C50 for Cu(I) extraction from 3 uM Cu10MT, not a protein affinity; 10 mM DTT, 20 mM ammonium acetate, pH 7.3, 25 °C; all CuMT-TTM complexes counted; no ternary complexes stated; read-out: C50 (mM) for Cu1Cox17
# Excerpt: ESI-MS demetallation of Cu10MT, Hill fit on MT2A (MT2, Cu10MT, Cu10MT2)
# Chain of MT2A (MT2, Cu10MT, Cu10MT2) (P18055 whole entry): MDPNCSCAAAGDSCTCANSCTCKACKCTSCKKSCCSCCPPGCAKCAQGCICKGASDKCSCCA
compound,measurement,value
"CCN(CC)C(=S)S [DETC, diethyl dithiocarbamate]",IC50,0.772 ± 0.087 mM
